The values below come from patent publication US5508413A, “(+)-5-isopropyl 3-methyl 2-cyano-6 methyl-4-(3-nitrophenyl)-1, 4-dihydropyridine-3, 5-dicarboxylate” (priority 1991, dated 1996).

One series concerns Anesthetized Dogs. The series can be described thus: Measurement of Arterial Blood Pressure in Anesthetized Dogs. The series is classed as in vivo, Mongrel dogs. To be noted: for blood pressure / ratio of blood pressure change as compared to the normal blood pressure: anesthetized dogs. As for the experimental part:
[A] Measurement of Arterial Blood Pressure in Anesthetized Dogs
Mongrel dogs weighing 11.8 to 19.0 kg were used. The dogs were anesthetized by intraperitoneal injection of pentobarbital sodium (35 mg/kg). The blood pressure was measured with a pressure transducer in the left femoral artery. The values of blood pressure were recorded on a polygraph. The right femoral vein was cannulated and the cumulative dose (0.01, 0.032, 0.1, 0.32, 1, 3.2, 10, 32 and 100 μg/kg) of the solution of Test Compounds dissolved in a mixture of polyethylene glycol, ethanol and water was intravenously injected in a volume of 0.2 ml/kg.
The values of blood pressure were shown in the following table with an expression of mm/Hg.
note: The values of the parentheses mean the ratio of blood pressure
change (%) in each dose as compared to the normal blood pressure.

Series [1] in a line: Solubility Test (in water at ambient temperature). The series is classed as physicochemical. As to conditions: for solubility: in water, ambient temperature. The protocol:
[B] Solubility Test Test Method Solubility of Test Compound A and Nilvadipine in water was measured at ambient temperature.

For series [2] the following is noted: background statement; cited from earlier work.
For series [3] the following is noted: orally administered; background statement; cited from earlier work.
[4] abbreviates: cumulative i.v. dose 0.32 μg/kg.
The mark [5] stands for this setting: as compared to its optically inactive racemate, Nilvadipine.

≈ marks a conversion by molar mass, not a printed value.

Take `COC(=O)C1=C(C#N)NC(C)=C(C(=O)OC(C)C)C1c1cccc([N+](=O)[O-])c1` (racemic) [Nilvadipine, (±)-5-isopropyl 3-methyl 2-cyano-6-methyl-4-(3-nitrophenyl)-1,4-dihydropyridine-3,5-dicarboxylate]: the blood pressure with Anesthetized Dogs (setting [4]) is on record as 104 ± 6 mm/Hg; in the series with Anesthetized Dogs (cumulative i.v. dose 1 μg/kg), 103 ± 5 mm/Hg; in the series with Anesthetized Dogs (cumulative i.v. dose 3.2 μg/kg) it was 100 ± 4 mm/Hg; in the series on Anesthetized Dogs (cumulative i.v. dose 10 μg/kg), 90 ± 3 mm/Hg; in the series on Anesthetized Dogs (cumulative i.v. dose 32 μg/kg), 83 ± 5 mm/Hg; in the series on Anesthetized Dogs (cumulative i.v. dose 100 μg/kg), 65 ± 6 mm/Hg. Moreover, the “ratio of blood pressure change as compared to the normal blood pressure” value in the series with Anesthetized Dogs (setting [4]) is listed as “+6 ± 1%”; in the series with Anesthetized Dogs (cumulative i.v. dose 1 μg/kg) it was “+5 ± 1%”; with Anesthetized Dogs (cumulative i.v. dose 3.2 μg/kg) it was -3 ± 2%; in the series on Anesthetized Dogs (cumulative i.v. dose 10 μg/kg) it was -7 ± 5%; in the series on Anesthetized Dogs (cumulative i.v. dose 32 μg/kg), -15 ± 6%; in the series with Anesthetized Dogs (cumulative i.v. dose 100 μg/kg) it was -34 ± 6%. Besides, in series [1], the concentration in solution (solubility) was 0.6 µg/mL (≈ 1.56 µM). Also, the “solubility in water (in words)” value in series [2] was “only slightly soluble in water”. In addition, the “absorbability of said drug into a body (in words)” value in series [3] is on record as “not so good”.
Turning to `COC(=O)C1=C(C#N)NC(C)=C(C(=O)OC(C)C)C1c1cccc([N+](=O)[O-])c1` (single isomer, unassigned; (+)) [(+)-5-isopropyl 3-methyl 2-cyano-6-methyl-4-(3-nitrophenyl)-1,4-dihydropyridine-3,5-dicarboxylate], the “hypotensive and vasodilating activities (in words)” value in the series on Anesthetized Dogs (setting [5]) was “much stronger and more lasting hypotensive and vasodilating activities”. In addition, the “solubility (in words)” value in series [1] (setting [5]) is reported as “higher solubility”.
Regarding `COC(=O)C1=C(C#N)NC(C)=C(C(=O)OC(C)C)C1c1cccc([N+](=O)[O-])c1` (single isomer, unassigned; (+)) [Test Compound A, (+)-5-isopropyl 3-methyl 2-cyano-6-methyl-4-(3-nitrophenyl)-1,4-dihydropyridine-3,5-dicarboxylate], the blood pressure with Anesthetized Dogs (setting [4]) is on record as 117 ± 6 mm/Hg; in the series with Anesthetized Dogs (cumulative i.v. dose 1 μg/kg), 114 ± 6 mm/Hg; in the series with Anesthetized Dogs (cumulative i.v. dose 3.2 μg/kg), 101 ± 7 mm/Hg; in the series on Anesthetized Dogs (cumulative i.v. dose 10 μg/kg), 74 ± 6 mm/Hg; with Anesthetized Dogs (cumulative i.v. dose 32 μg/kg), 64 ± 7 mm/Hg; in the series on Anesthetized Dogs (cumulative i.v. dose 100 μg/kg) it was 58 ± 6 mm/Hg. In addition, the “ratio of blood pressure change as compared to the normal blood pressure” value is given as -2 ± 1% in the series with Anesthetized Dogs (setting [4]); -5 ± 1% in the series on Anesthetized Dogs (cumulative i.v. dose 1 μg/kg); -16 ± 2% with Anesthetized Dogs (cumulative i.v. dose 3.2 μg/kg); -39 ± 2% with Anesthetized Dogs (cumulative i.v. dose 10 μg/kg); -47 ± 4% in the series on Anesthetized Dogs (cumulative i.v. dose 32 μg/kg); -52 ± 3% in the series with Anesthetized Dogs (cumulative i.v. dose 100 μg/kg). Further, the solubility (commonly the dissolved amount per volume that the medium holds) in series [1] came to 4.7 µg/mL (≈ 12.2 µM).
